Series [1] relates to MKN-74. In words: cell viability, trypan blue dye exclusion. The format is cell-based, human. As to conditions: 24 hours, single drug or concomitant; bryostatin 1 μM, Mitomycin-C 1 μg/ml, Taxol 50 μM, Cisplatin 50 μM. An excerpt:
Recently our laboratory has studied the effects of combining bryostatin with chemotherapy both in vitro and in vivo against solid tumors. For our in vitro studies, we have been using the human gastric cancer cell line MKN-74. Cytotoxicity has been examined both by cell viability assays using trypan blue dye exclusion assays and by the induction of apoptosis using quantitative fluorescent microscopy.

Series [2] concerns MKN-74. In words: clonogenic assay, resistance relative to MKN-74. As to conditions: MKN-74 (reference); 10 μg/ml CDDP, 5 μg/ml MMC, 50 FM 5-FU. The format is cell-based, human. The source says: (§1) The basis of drug resistance in these disease has not been well defined. […] For gastric cancer applicants have been successful in establishing five long-term cell lines, SK-GT-1, SK-GT-2, SK-GT-4, SK-GT-5, and SK-GT-6 for Sloan Kettering Gastric Tumor (12,13) none of which express P-glycoprotein (14). Yet, all these tumors are resistant to chemotherapy and to the induction of apoptosis. Applicants have reported that the relative sensitivity of these gastric cancer cells to chemotherapy is influenced by their p53 status (14).

A further series concerns NU-GC-4. In words: clonogenic assay, resistance relative to MKN-74. The format is cell-based, human. As to conditions: 10 μg/ml CDDP, 5 μg/ml MMC.
Source text: as §1

A further series has as its system SK-GT-5. The series is described as follows: clonogenic assay, resistance relative to MKN-74. As to conditions: 10 μg/ml CDDP, 5 μg/ml MMC, 50 FM 5-FU. The format is cell-based, human.
Source text: as §1

For another series, the system named is SK-GT-2. The series is described as follows: clonogenic assay, resistance relative to MKN-74. The format is cell-based, human. As to conditions: 10 μg/ml CDDP, 5 μg/ml MMC, 50 FM 5-FU.
Source text: as §1

In a further series the test system is SK-GT-1. In words: clonogenic assay, resistance relative to MKN-74. The format is cell-based, human. To be noted: clonogenic survival ratio, 10 μg/ml CDDP, 5 μg/ml MMC, 50 FM 5-FU.
Source text: as §1

Another series relates to SK-GT-2 cells. In words: apoptosis by QFM, Hoechst-33258 staining. As to conditions: 24 hours. The format is cell-based, human. The protocol:
(i) Safingol enhances MMC-induced apoptosis: SK-GT-5 cells, which have a mutated p53 gene (9), were treated with safingol in the presence or absence of MMC for 24 hours. For determination of apoptosis SK-GT-5 cells were treated according to one of several conditions: (i) no drug (control) for 24 hours, (ii) Safingol alone (50 μM) for 24 hours. (This concentration represents the highest non-toxic dose of safingol for the SK-GT-5 cells, as determined by cell proliferation studies, and slightly exceeds the safingol concentration (30 μM) which inhibits PKC enzyme activity by 50% in vitro.), (iii) Mitomycin-C alone (2.5 μg/ml) for 24 hours, (iv) Mitomycin-C alone (5 μg/ml) for 24 hours, (v) the combination of safingol (50 μM) and Mitomycin-C (2.5 μg/ml) for 24 hours, (vi) the combination of safingol (50 μM) and Mitomycin-C (5 μg/ml) for 24 hours. Apoptosis was measured by quantitative fluorescent microscopy (QFM) of nuclear changes induced by apoptosis, as determined by bisbenzimide trihydrochloride (Hoescht-33258) staining of condensed nuclear chromatin (3,5). For the QFM duplicate samples of 500 cells each were counted and scored for the incidence of apoptotic chromatin condensation using an Olympus BH-2 fluorescence microscope.
(ii) UCN-01 enhances MMC-induced apoptosis: SK-GT-2 cells, which have a mutation in p53, were treated with increasing concentrations of UCN-01 in the presence or absence of a fixed dose of MMC for 24 hours.
Both UCN-01 and Flavo inhibit PKC. These drugs are cytotoxic to tumor cells and have been reported to induce apoptosis. […] In order to test this hypothesis we elected to treat gastric cancer cells, MKN-74 and SK-GT-2, as well as breast cancer cells, MDA-MB-468, with UCN-01 (7.5 to 10 μM) or Flavo (300 nM) in the presence or absence of MMC (5 μg/ml) or Taxol (50 μM) for 24 hours. Induction of apoptosis was estimated by counting the frequency of condensed nuclear chromatin with Hoechst-33258 stain in duplicate samples of 400 cells.

A further series relates to PKC. To be noted: cited from earlier work.
Details of series [3]: species or system patients. To be noted: in vivo. As for the experimental part:
Individual patients could receive up to six cycles of treatment with the same dose of safingol and doxorubicin (DOX) every 21 days, until signs of tumor progression or unacceptable toxicity occurs, or until the patient's cumulative life-time dose of doxorubicin exceeds 400 mg/m^2 with an additional cycle of treatment. Prior DOX therapy was allowed up to a dose of 280 mg/m^2 as long as the left ventricular ejection fraction was>50%. The starting dose of safingol was 15 mg/m^2.
In fact the white blood count nadirs have increased with increasing safingol dose. Dose escalation above 120 mg/m^2 is planned.
This was associated with no changes in reticulocyte count, no evidence of hemolysis on the peripheral smear, no “pink” discoloration to the plasma, and no evidence or urine hemosiderin. This was believed to be related to relatively poor venous access which only became apparent on the first day of therapy. The patient was retreated according to applicants, protocol criteria for grade I hemolysis which included infusion of safingol through a central vein and at one half the concentration (twice the total volume but the same total dose). Under these conditions the patient has experienced no further evidence of hemolysis.

Series [4] in a line: phase I trial safingol with doxorubicin: plasma pharmacokinetics. Type of series: in vivo, patients. To be noted: human, intravenous. As for the experimental part: (iii) Safingol pharmacokinetics appear linear with increasing dose: The pharmacokinetics of patients treated with safingol and DOX at 45 mg/m^2 is shown below: […]
Another series concerns the target case in kinase. As to conditions: read-out: concentration for 50% inhibition of case in kinase; safingol; cited from earlier work.
The next series deals with MDA-MB-468 cells. In words: cell proliferation studies. Type of series: cell-based, human.
For a further series, the target named is creatinine phosphokinase. As to conditions: read-out: concentration for 50% inhibition of creatinine phosphokinase; safingol; cited from earlier work.
For the next series, the system named is 16C mammary carcinoma. To be noted: safingol 5 to 20 mg/kg; cited from earlier work.

“And” between values parts separate entries of the source, which are not always exact repeats. Equal entries are not always repeated. Where two headings read alike, the source gives them in different places.

For orientation: Cmax means the highest concentration seen after dosing. As usually defined, the AUC is the area under the concentration-time curve, a measure of exposure.

As to `CO[C@@]12[C@H](COC(N)=O)C3=C(C(=O)C(C)=C(N)C3=O)N1C[C@@H]1N[C@@H]12` [MMC, Mitomycin-C], in the series with MKN-74 [1], the “% of Cells Alive” value came out at 76%. Besides, the “Fold-Increase in Resistance Relative to MKN-74 (p53wt)” value with MKN-74 [2] was determined as 1X; with NU-GC-4, 10X; in the series on SK-GT-5, 55X; in the series with SK-GT-2, 106X; with SK-GT-1 it was 166X. Further, the “percentage of cells undergoing apoptosis (QFM)” value in the series with SK-GT-2 cells (MMC alone 5.0 μg/ml) is given as 7%±3%. Moreover, in the series with SK-GT-2 cells (UCN-01 7.5 to 10 μM, MMC 5 μg/ml), the “induction of apoptosis (condensed chromatin, 400 cells)” value is given as 11% ± 2.

Turning to `CCCCCCCCCCCCCCC[C@H](O)[C@@H](N)CO` [safingol, L-threo-dihydrosphingosine], the “concentration range that inhibits PKC activity” value with PKC is recorded as “micromolar ranges”. In addition, the IC50 was 33 µM and 30 µM in the series with PKC (safingol, in vitro, read-out: concentration which inhibits PKC enzyme activity by 50%); over 218 µM on case in kinase; over 218 µM on creatinine phosphokinase. Further, in [3], the “dose limiting hematologic toxicity” value was “no-dose limiting hematologic toxicity”. In [3], the hemolysis result is listed as “only one patient has experienced a grade I hemolysis”. For the same molecule, the highest concentration (Cmax) in [4] (15 mg/m2, dose level 15 mg/m^2) stood at 199 ng/mL; in [4] (30 mg/m2, dose level 30 mg/m^2) it was 336 ng/mL; in series [4] (60 mg/m2, dose level 60 mg/m^2) it was 422 ng/mL; in series [4] (120 mg/m2, dose level 120 mg/m^2) it was 988 ng/mL. In addition, the AUC in series [4] (15 mg/m2, dose level 15 mg/m^2, read-out: AUC without DOX (first column)) is 168 ng·h/mL; in series [4] (15 mg/m2, dose level 15 mg/m^2, read-out: AUC without DOX (second column)) it was 161 ng·h/mL; in series [4] (30 mg/m2, dose level 30 mg/m^2, read-out: AUC without DOX (first column)), 501 ng·h/mL; in series [4] (30 mg/m2, dose level 30 mg/m^2, read-out: AUC without DOX (second column)), 428 ng·h/mL; in series [4] (60 mg/m2, dose level 60 mg/m^2, read-out: AUC without DOX (first column)), 531 ng·h/mL; in series [4] (60 mg/m2, dose level 60 mg/m^2, read-out: AUC without DOX (second column)), 501 ng·h/mL. Moreover, the AUC in series [4] (120 mg/m2, dose level 120 mg/m^2, read-out: AUC without DOX (first column)) amounted to 1230 ng·h/mL; in [4] (120 mg/m2, dose level 120 mg/m^2, read-out: AUC without DOX (second column)), 1230 ng·h/mL. Also, the “highest non-toxic dose (cell proliferation studies)” value in the series on MDA-MB-468 cells was found to be 50 µM. Also, in the series on 16C mammary carcinoma, the “effect on tumor cell growth, single agent” value is on record as “no effect on inhibiting tumor cell growth”.

The values are drawn from patent US7045495B2 (Sloan-Kettering Institute for Cancer Research, priority 1996, dated 2006).
